{"source": "paper PMC10499737", "about": "(Inflammation Research, 2023)", "key": {"[1]": {"tested_on": "production of active NE in U937 cells", "assay": "Inhibition of the production of active NE in a neutrophil progenitor cell line", "type": "cell-based", "details": "Homo sapiens, U-937, 48 h incubation", "excerpt": "The inhibitory activity of BI 1291583 on the production of active NE was investigated in duplicate experiments in the human myeloid cell line U937. U937 cells were used as they constitutively express and process NE. Additionally, a myeloid cell line was used rather than primary neutrophils as CatC activates NSPs in the bone marrow during myelopoiesis and no further activation occurs once the neutrophils have entered the bloodstream; as such, the effect of CatC inhibition cannot be investigated in primary neutrophils. BI 1291583 was added to cell suspensions at a final concentration of 0.064, 0.32, 1.6, 8, 40, 200 and 1000 nM. Cells were then incubated for 48 h. Cell viability was then measured in duplicate experiments using the CellTiter-Glo® Luminescent Cell Viability Assay according to manufacturer’s instructions. For measurement of NE activity, cells were separated by centrifugation, lysed and debris removed. NE activity was measured by conversion of a fluorescent substrate. Increase in fluorescence was measured over time with a SpectramaxM5 fluorescence reader at 360 nm excitation wavelength and 460 nm emission wavelength. The reaction rate when CatC is fully saturated by BI 1291583 was used as primary readout to calculate NE activity. Percentage inhibition of NE activity in lysates treated with BI 1291583 was calculated relative to the mean of the vehicle-only control. […]"}, "[2]": {"tested_on": "NE activity in mouse BALF neutrophils", "assay": "In vivo LPS-challenge model: NE activity in BALF neutrophil lysate", "details": "11-day dosing", "procedure": "In the first—a 2-day treatment holiday regimen—mice were treated with 0.005, 0.05, 0.5 or 5 mg/kg BI 1291583, or vehicle, twice daily by oral gavage on Days 1‒5, 8 and 9. On Day 10, a final dose of BI 1291583 or vehicle was given followed by challenge with nebulised E. coli lipopolysaccharide (LPS) to induce neutrophil influx into the lungs. In the second dosing regimen, mice were treated with 0.00005, 0.0001, 0.001, 0.01, 0.03, 0.1, 0.5 or 5 mg/kg BI 1291583, or vehicle, once daily by oral gavage for 11 consecutive days. On Day 12, a final dose of BI 1291583 or vehicle was given followed by LPS challenge.\nFour and a half hours after LPS challenge, lung neutrophils were harvested by lavage via tracheal cannula, and neutrophil count measured. Bronchoalveolar lavage fluid (BALF) samples were then centrifuged and cell pellets lysed with volume of lysis buffer normalised to neutrophil count. NE, CatG and PR3 activity were determined by conversion of a fluorescent substrate measured over time with a SpectramaxM5 fluorescence reader at 360 nm excitation wavelength and 460 nm emission wavelength. Fluorescence values were normalised to neutrophil count, and mean NE, CatG and PR3 activity from BI 1291583-treated animals was calculated relative to the mean of LPS/vehicle-treated control animals. CatG and PR3 activity was measured in pooled samples from each dose group. For the 11-day dosing experiments, the dose of BI 1291583 that inhibited 50% of NE activity (ED50) was calculated using GraphPad Prism software (version 9.5.0 for Windows, GraphPad Software, www.graphpad.com) with a non-linear regression curve fit. […] A one-way analysis of variance with Dunnett’s multiple comparisons test analysis was performed to determine statistical significance.\nThe inhibitory activity of INS1007 on the production of active NE, and distribution of INS1007 to bone marrow and plasma was investigated under the same conditions as the 11-day dosing regimen (see Methods, Additional File 1).\n(§1) The animals were treated with BI 1291583 (0.005, 0.05, 0.5 and 5 mg/kg) or vehicle twice daily on Days 1‒5, 8 and 9. BI 1291583 or vehicle was applied orally by gavage (10 ml/kg body weight). On Day 10, animals were treated with BI 1291583 or vehicle followed by an LPS inhalation challenge.\nas §1, with “(0.00005, 0.0001, 0.001, 0.01, 0.03, 0.1, 0.5,” for “(0.005, 0.05, 0.5 and”, “once” for “twice”, “for 11 consecutive days.” for “on Days 1‒5, 8 and 9.”, “12,” for “10,”\nTo induce neutrophil influx into the lungs, animals were challenged with an LPS inhalation at Day 12 of this study. LPS from E.coli (serotype 055:B5) was used (SigmaAldrich #L2880). […]\nThe trachea was cannulated and a lavage was performed using 2x1 ml lavage buffer (HBSS [HyClone, # Sh30588,01] with 10 U/ml heparin). Cell count in the lavage fluid and cell differentiation were determined using a haemocytometer (Sysmex XT-200i), following the supplier’s instructions.\nFor enzymatic NE measurement, the lavage cells were separated from two 500 µl aliquots of lavage fluid by centrifugation (1500rpm, 4°C, 15min), the supernatants were removed and the pellets were stored at -80°C for further analyses. For enzymatic proteinase 3 (PR3) and Cat G measurement, the remaining lavage samples from all animals of each dose group were pooled and cell count and cell differentiation were determined as described above. […]"}, "[3]": {"assay": "Bone marrow and plasma exposure after repeated oral dosing (LC-MS/MS)", "type": "in vivo", "details": "Crl:NMRI, mouse, 11-day dosing; for Kp at 5 h: bone marrow/plasma, 5 h after final dose, read-out: bone marrow-to-plasma exposure ratio", "procedure": "At 5 h after final BI 1291583 administration, animals were euthanised by Narcoren application (400–600 mg/kg intraperitoneally). For assessment of BI 1291583 exposure in plasma, five drops of retrobulbar blood were taken. The femur was prepared by extraction, shock frozen in liquid nitrogen and stored at − 20 °C until bone marrow preparation. For preparation of bone marrow, epiphysis severed off and bone marrow extracted from the diaphysis. Exposure was measured via liquid chromatography–tandem mass spectrometry. […]"}, "[4]": {"set-up": "method as in PMID 28800383", "details": "Phase 1 study; cited from earlier work"}, "[5]": {"tested_on": "patients with bronchiectasis", "details": "10 mg or 25 mg once daily, 24 weeks; cited from earlier work"}, "healthy volunteers": {"tested_on": "healthy volunteers", "set-up": "method as in PMID 29484635", "details": "once daily up to 40 mg for up to 28 days; cited from earlier work"}}, "note": "Where two headings read alike, the source gives them in different places."}
{"smiles": "Cn1c(=O)oc2ccc(-c3ccc(C[C@@H](C#N)NC(=O)[C@@H]4CNCCCO4)cc3)cc21", "note": "[INS1007]", "values": [{"measurement": "IC50", "setting": "[1]", "result": 64, "unit": "nM"}, {"measurement": "inhibition of production of active NE compared with vehicle/LPS control", "setting": "[2]; 0.1 mg/kg once daily oral", "result": "no inhibition"}, {"measurement": "inhibition at 30 mg/kg", "setting": "[2]; Mus musculus, Neutrophil, 264 h, at 30 mg/kg (range 0.3-50 mg/kg), p<0.001, read-out: maximum inhibition of production of active NE compared with LPS control", "result": 76, "unit": "%"}, {"measurement": "inhibition at 0.5 mg/kg", "setting": "[2]; Mus musculus, Neutrophil, po, 264 h, 0.5 mg/kg once daily oral, read-out: inhibition of production of active NE compared with vehicle/LPS control", "result": 19, "unit": "%"}, {"measurement": "inhibition at 5 mg/kg", "setting": "[2]; Mus musculus, Neutrophil, po, 264 h, 5 mg/kg once daily oral, read-out: inhibition of production of active NE compared with vehicle/LPS control", "result": 75, "unit": "%"}, {"measurement": "ED50", "setting": "[2]; Neutrophil, 264 h, once daily oral, read-out: ED50 for NE inhibition", "result": 1.4, "unit": "mg/kg"}, {"measurement": "concentration at 5 h", "setting": "[3]; bone marrow, 0.1 mg/kg, 5 h after final dose on Day 12, read-out: exposure in bone marrow, mean (SEM)", "result": 143, "unit": "nM"}, {"measurement": "concentration at 5 h", "setting": "[3]; bone marrow, 0.5 mg/kg, 5 h after final dose on Day 12, read-out: exposure in bone marrow, mean (SEM)", "result": 321, "unit": "nM"}, {"measurement": "concentration at 5 h", "setting": "[3]; bone marrow, 5 mg/kg, 5 h after final dose on Day 12, read-out: exposure in bone marrow, mean (SEM)", "result": 1690, "unit": "nM"}, {"measurement": "Kp at 5 h", "setting": "[3]; 0.1 mg/kg, 0.1 mg/kg", "result": 24}, {"measurement": "Kp at 5 h", "setting": "[3]; 0.5 mg/kg, 0.5 mg/kg", "result": 8}, {"measurement": "Kp at 5 h", "setting": "[3]; 5 mg/kg, 5 mg/kg", "result": 2}, {"measurement": "concentration at 5 h", "setting": "[3]; plasma, 0.1 mg/kg, 5 h after final dose on Day 12, read-out: exposure in plasma, mean (SEM)", "result": 6, "unit": "nM"}, {"measurement": "concentration at 5 h", "setting": "[3]; plasma, 0.5 mg/kg, 5 h after final dose on Day 12, read-out: exposure in plasma, mean (SEM)", "result": 40, "unit": "nM"}, {"measurement": "concentration at 5 h", "setting": "[3]; plasma, 5 mg/kg, 5 h after final dose on Day 12, read-out: exposure in plasma, mean (SEM)", "result": 710, "unit": "nM"}]}
{"smiles": "CC[C@@H](/C=C/C(=O)N1CCc2ccccc21)NC(=O)C1(N)CCOCC1", "note": "[GSK2793660]", "values": [{"measurement": "inhibition of downstream NSPs", "setting": "[4]", "result": "insufficient inhibition of downstream NSPs"}, {"measurement": "skin events", "setting": "[4]", "result": "marked skin desquamation events"}]}
{"smiles": "Cn1c(=O)oc2ccc(-c3ccc(C[C@@H](C#N)NC(=O)[C@@H]4CNCCCO4)cc3)cc21", "note": "[brensocatib]", "values": [{"measurement": "annualised rates of exacerbations and number of severe exacerbations compared with placebo", "setting": "[5]", "result": "lower"}, {"measurement": "incidence of hyperkeratosis compared with the placebo group", "setting": "[5]", "result": "higher"}, {"measurement": "risk of exacerbation over the treatment period compared with placebo", "setting": "[5]", "result": "lower"}, {"measurement": "time to first exacerbation compared with placebo", "setting": "[5]", "result": "significantly increased"}, {"measurement": "NE activity", "setting": "healthy volunteers", "result": "Exposure-related reduction"}, {"measurement": "safety profile", "setting": "healthy volunteers", "result": "generally well-tolerated"}, {"measurement": "skin findings", "setting": "healthy volunteers", "result": "several dose-dependent, possibly CatC-related non-serious skin findings (exfoliation and hyperkeratosis)"}]}
